Experimental data as given in patent US9943501B2 (KOJUN JAPAN CO., LTD., priority 2014, dated 2018).

Assays:
[1] = system: C57BL/6J mice fed with a high-fat diet; test: Leptin in blood of dietary-induced obesity mouse model; type: in vivo; settings: 0.037 μg/kg/day and 0.01 mg/kg/day; 85 days; FIG. 17
Description: (§1) For each individual of the male C57BL/6J mice after a lapse of 85 days into the test of Example 9, blood was collected from the abdominal vena cava using a syringe supplemented with heparin under anesthesia with 2% isoflurane. The amount of blood collected was set to approximately 0.8 mL. The collected blood was stored under ice cooling until centrifugation. After centrifugation (conditions: 4° C., approximately 1800×g, 10 min), the upper layer was recovered to obtain plasma. The plasma was dispensed to sampling tubes and cryopreserved until measurement. The mouse adiponectin concentration contained in the mouse plasma obtained from each individual was measured using a commercially available ELISA kit, and the average adiponectin concentration of each test group was determined.
Leptin is a protein hormone that regulates appetite and metabolism. The leptin concentration in blood is known to elevate due to obesity, resulting in leptin resistance. In Example 10, the amount of mouse leptin contained in the mouse plasma obtained from each individual was measured using a commercially available ELISA kit, and the average leptin concentration of each test group was determined. The ordinate of the drawing depicts the leptin concentration (pg/mL) in the mouse plasma. The test group indicated by each bar of the bar graph is the same as in FIGS. 15 and 16 mentioned above.

[2] = system: C57BL/6J mice fed with a high-fat diet; test: Adiponectin in blood of dietary-induced obesity mouse model; type: in vivo; settings: 85 days, FIG. 15
Description: Adiponectin is a secretory protein related to dysmetabolic syndrome such as insulin resistance, diabetes mellitus or arteriosclerosis. Adiponectin-deficient mice have the properties of being more likely to develop insulin resistance and being more likely to be affected by arteriosclerosis than wild-type mice. In humans as well, it is known that lowered adiponectin concentrations are related to dysmetabolic syndrome such as diabetes mellitus and arteriosclerosis. Thus, the dietary-induced obesity mouse models of Example 9 were subjected to the test of measuring the amount of adiponectin in blood.
as §1, with “determined. […]” for “determined.”

O=C1C=C(c2ccccc2)C(O)O1 (stereo not drawn) [5H4PB, 5-hydroxy-4-phenylbutenolide]
leptin concentration in mouse plasma compared with the control group [1]: inhibition of a rise in leptin concentration was confirmed in a dose-dependent manner | adiponectin concentration in mouse plasma compared with the control group (t test) ([2]; 0.01 mg/kg/day): significant rise in adiponectin concentration | adiponectin concentration in mouse plasma compared with the control group ([2]; 5H4PB administration groups (0.037 μg/kg/day and 0.01 mg/kg/day)): confirmed to elevate
